# In patent publication US12186426B2, “Solid dosage form” (IX BIOPHARMA LTD, priority 2009, dated 2025):
# Several values for one entry are separate records, joined by “and”; a condition that tells them apart may be missing. Equal values may be shown once.
# Columns and labels:
# [1] = assay type: physicochemical; conditions: pH 6.8
# [2] = Ketamine wafer safety and tolerability (Likert, Bond and Lader scales) in healthy volunteers; assay type: in vivo, human
# Protocol: Safety assessments included scheduled adverse event (AE) probes, spontaneous AE reporting, routine laboratory investigations, 12-lead electrocardiograms (ECGs) and vital sign evaluation during a 24 hour period from start of dosing. A full physical examination was performed before the first dosing occasion and 24 hours after the second dosing occasion.
# Local tolerability was assessed, by using Likert scales, at pre dose, 5, 10, 15, 30 and 45 minutes and one hour post dose administration. Modified Bond and Lader scales to assess sedation and altered perception, by using the three factors “alertness”, “contentedness” and “calmness”, were performed at pre dose, 30 minutes post dose and at hours 1, 1.5, 2, 2.5, 3, 4, 6, 8, 12, and 24 hours post dose administration.
# The Bond and Lader scales comprise a total of 16 100-mm lines anchored at either end by antonyms. Participants marked their current subjective state between the antonyms on the line. Each line was scored as millimetres to the mark from the negative antonym. From the resultant scores, three measures derived by factor analysis were isolated. […]
# [3] = Ketamine wafer pharmacokinetics and absolute bioavailability, crossover study in healthy volunteers; conditions: for extrapolated portion of the AUC, AUCextr: range over subjects; for time of first quantifiable plasma concentration: all subjects
# [4] = gmean of eight volunteers, 10 mg as 30 minute IV infusion
# [5] = human, plasma, other: sublingual, 25 mg
# [6] = individual subjects, 10 mg as 30 minute IV infusion
# [7] = individual subjects, 25 mg SL wafer
# [8] = median of eight volunteers, 25 mg SL
structure (smiles),measurement,setting,value
"Cc1ncc2n1-c1ccc(Cl)cc1C(c1ccccc1F)=NC2 [midazolam powder, midazolam]",dissolution rate compared with wafer,[1],considerably slower
"CNC1(c2ccccc2Cl)CCCCC1=O (racemic) [RS ketamine, ketamine]","Bond and Lader mood rating scales (alertness, contentedness, calmness)","[2]; 10 mg IV and 25 mg SL, 24 hr observation",no clear trends for effects
same,"ECG, vital signs, haematology, clinical chemistry, urinalysis",[2]; healthy volunteers,no clinically relevant changes or trends for abnormalities
same,"extrapolated portion of the AUC, AUCextr",[3]; IV 10 mg,3-7%
same,time of first quantifiable plasma concentration,[3]; IV dosing 10 mg,five
same,"extrapolated portion of the AUC, AUCextr",[3]; SL 25 mg,2-9%
same,time of first quantifiable plasma concentration,[3]; SL dosing 25 mg,five
same,"Cmax,I",[3]; [4],128.0 ng/mL
same,VZ,[3]; [4],237 L
same,MRT,"[3]; human, plasma, iv, 10 mg",3.9 h
same,half-life,"[3]; human, plasma, iv, 10 mg",7 h
same,AUC,"[3]; human, plasma, iv, 10 mg, AUCINF__, gmean of eight volunteers, 10 mg as 30 minute IV infusion",255 ng·h/mL
same,AUC,"[3]; human, plasma, iv, 10 mg, AUCINF__, individual subjects, 10 mg as 30 minute IV infusion",255 ng·h/mL
same,clearance,"[3]; human, plasma, iv, 10 mg, CL, gmean of eight volunteers, 10 mg as 30 minute IV infusion",654 mL/min
same,clearance,"[3]; human, plasma, iv, 10 mg, CL, individual subjects, 10 mg as 30 minute IV infusion",655 mL/min
same,Cmax,"[3]; human, plasma, iv, 10 mg, Cmax,I, gmean of eight volunteers, 10 mg as 30 minute IV infusion",128 ng/mL
same,clearance,"[3]; human, plasma, iv, 10 mg, Median CL, IV dosing 10 mg",628 mL/min
same,Tmax,"[3]; human, plasma, iv, 10 mg, tmax,IV, individual subjects, 10 mg as 30 minute IV infusion",0.5 h
same,Tmax,"[3]; human, plasma, iv, 10 mg, tmax,IV, median of eight volunteers, 10 mg as 30 minute IV infusion",0.5 h
same,MRT,[3]; [5],3.8 h
same,bioavailability,[3]; [5],23 to 38%
same,AUC,"[3]; human, plasma, other: sublingual, 25 mg, AUCINF_, gmean of eight volunteers, 25 mg SL wafer",185 ng·h/mL
same,AUC,"[3]; human, plasma, other: sublingual, 25 mg, AUCINF_, individual subjects, 25 mg SL wafer",184 ng·h/mL
same,Cmax,"[3]; human, plasma, other: sublingual, 25 mg, Cmax,S, gmean of eight volunteers, 25 mg SL wafer",71.1 ng/mL
same,Tmax,"[3]; human, plasma, other: sublingual, 25 mg, tmax,SL, median of eight volunteers, 25 mg SL wafer",0.75 h
same,AUCINF__,[3]; [6],270.02 ng·h/mL and 289.22 ng·h/mL and 299.44 ng·h/mL and 261.00 ng·h/mL and 167.21 ng·h/mL and 282.73 ng·h/mL and 243.24 ng·h/mL
same,CL,[3]; [6],37.03 L/h and 34.58 L/h and 33.40 L/h and 38.31 L/h and 59.81 L/h and 35.37 L/h and 41.11 L/h
same,VZ,[3]; [6],283 L and 253 L and 300 L and 164 L and 385 L and 375 L and 126 L and 158 L
same,"t1/2,I",[3]; [6],5.0 h and 4.7 h and 6.0 h and 3.4 h and 4.3 h and 2.5 h and 2.7 h
same,"tmax,IV",[3]; [6],0.6 h and 0.52 h
same,"Cmax,I","[3]; individual subjects, 10 mg as 30 minute IV infusion, plasma",190.2 ng/mL and 124.2 ng/mL and 120.3 ng/mL and 101.8 ng/mL and 83.18 ng/mL and 81.12 ng/mL and 226.6 ng/mL and 163.2 ng/mL
same,bioavailability F,"[3]; individual subjects, 25 mg SL vs 10 mg IV",38% and 29% and 30% and 23% and 28% and 27%
same,AUCINF_,[3]; [7],203.47 ng·h/mL and 171.90 ng·h/mL and 211.33 ng·h/mL and 186.14 ng·h/mL and 161.64 ng·h/mL and 202.89 ng·h/mL and 162.52 ng·h/mL
same,"t1/2,",[3]; [7],3.2 h and 5.5 h and 3.5 h and 2.3 h and 4.6 h and 5.1 h and 2.9 h and 1.8 h
same,"tmax,SL",[3]; [7],1 h and 0.58 h and 0.25 h
same,"Cmax,S","[3]; individual subjects, 25 mg SL wafer, plasma",78.77 ng/mL and 60.24 ng/mL and 50.02 ng/mL and 76.12 ng/mL and 51.79 ng/mL and 61.17 ng/mL and 88.76 ng/mL and 128.2 ng/mL
same,mean absorption time MAT,"[3]; individual subjects, 25 mg SL, MRTSL−MRTIV",−1.1 hr (2×) and 0.86 hr and −0.56 hr and 0.20 hr and 0.64 hr and 1.1 hr and −0.83 hr
same,"t1/2,I","[3]; median of eight volunteers, 10 mg as 30 minute IV infusion",4.5 h
same,bioavailability F,[3]; [8],"29 [27, 31] %"
same,mean absorption time MAT,[3]; [8],-0.18 h
same,"t1/2,","[3]; median of eight volunteers, 25 mg SL wafer",3.4 h
same,"mean absorption time MAT, Min-Max","[3]; minimum and maximum of eight volunteers, 25 mg SL",-1.1 to 1.1 h
